Data on 29 compounds can be found in US20220348590A1, “CYCLOOXYGENASE-2 INHIBITORS AND USES THEREOF” (The Board Institute, Inc., priority 2019, published 2022).

Read-outs that look alike come from different tables or passages of the source.

In the assay the target is T1, human recombinant COX2 (hCOX2) (UniProt P35354).
T1 sequence (P35354 1-604): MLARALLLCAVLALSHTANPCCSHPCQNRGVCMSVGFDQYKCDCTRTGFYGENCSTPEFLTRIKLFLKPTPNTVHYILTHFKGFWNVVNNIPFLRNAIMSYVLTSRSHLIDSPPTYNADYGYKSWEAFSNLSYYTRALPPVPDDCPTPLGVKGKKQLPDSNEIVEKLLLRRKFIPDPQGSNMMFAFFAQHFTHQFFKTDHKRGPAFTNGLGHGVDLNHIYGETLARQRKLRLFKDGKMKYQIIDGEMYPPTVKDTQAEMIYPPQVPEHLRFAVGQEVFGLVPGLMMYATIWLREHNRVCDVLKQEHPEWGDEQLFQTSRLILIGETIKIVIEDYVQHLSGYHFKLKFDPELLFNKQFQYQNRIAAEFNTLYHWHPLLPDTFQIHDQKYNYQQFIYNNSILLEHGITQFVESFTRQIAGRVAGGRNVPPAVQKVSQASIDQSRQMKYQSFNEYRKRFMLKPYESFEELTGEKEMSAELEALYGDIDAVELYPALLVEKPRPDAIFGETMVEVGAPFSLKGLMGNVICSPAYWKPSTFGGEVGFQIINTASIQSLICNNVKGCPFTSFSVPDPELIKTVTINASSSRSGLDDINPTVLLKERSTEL
The experiment in a line: LCMS-based COX2 enzymatic inhibition assay (PGE2 quantification). As to conditions: for IC50: average. The arrangement: COX2 2 minutes pge2/pge2d4 area ratio Avg; other: 2 minutes; readout pge2/pge2d4 area ratio; average; COX2 2 minutes pge2/pge2d4 area ratio Avg; LLE; average LLE; COX2 2 minutes pge2 area (counts) Avg; readout pge2 area (counts); other: 2 min; "ovine COX2 (oCOX2), human recombinant COX2 (hCOX2)". It counts as biochemical. In outline: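 PGE2 formed from arachidonic acid (final 5 μM, 2 min) was measured by LC-MS-MS against DMSO controls. Enzyme (oCOX-1 0.1 μg or hCOX2 0.2 μg) with hematin/epinephrine cofactors at pH 8.0 was given 10 min at 37 °C with compound first. Twelve-point curves run three times gave IC50.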

The mark [1] stands for this setting: 2 minutes, readout pge2/pge2d4 area ratio, average LLE.
Where [2] appears, read: 2 minutes, readout pge2/pge2d4 area ratio, read-out: COX2 2 minutes pge2/pge2d4 area ratio Avg. IC50.
[3] abbreviates: 2 minutes, readout pge2 area (counts), average LLE.
Where [4] appears, read: 2 minutes, readout pge2 area (counts), read-out: COX2 2 minutes pge2 area (counts) Avg. IC50.

Turning to `COc1ncc(-c2ccc(S(C)(=O)=O)cc2)nc1NCc1ccncc1` [Compound 230], the “COX2 2 minutes pge2/pge2d4 area ratio Avg. LLE” value under setting [1] was 4.383. The IC50 came to 2.38 µM under setting [2] and 2.48 µM under setting [4]. Moreover, the “COX2 2 minutes pge2 area (counts) Avg. LLE” value (from here on “COX2 2 minutes pge2 area”) under setting [3] is on record as 4.367.

`CS(=O)(=O)c1ccc(-c2cccc(NCc3ncco3)n2)cc1` [Compound 231]: under setting [1], the “COX2 2 minutes pge2/pge2d4 area ratio Avg. LLE” value was found to be 3.1763. The IC50 runs as follows: under setting [2], 2.4 µM; under setting [4], 2.73 µM. In addition, the “COX2 2 minutes pge2 area” value under setting [3] was 3.075.

For `CS(=O)(=O)c1ccc(-c2cncc(OCc3cccs3)c2)cc1` [Compound 232], the “COX2 2 minutes pge2/pge2d4 area ratio Avg. LLE” value under setting [1] is reported as 2.229. For the same compound, the IC50 was determined as 2.41 µM under setting [2] and 2.35 µM under setting [4]. Moreover, the “COX2 2 minutes pge2 area” value under setting [3] is given as 2.107.

Regarding `CS(=O)(=O)c1ccc(-c2cnnc(NCc3cccs3)c2)cc1` [Compound 233], under setting [1], the “COX2 2 minutes pge2/pge2d4 area ratio Avg. LLE” value turned out to be 2.958. Also, the IC50 runs as follows: under setting [2], 2.45 µM; under setting [4], 3.06 µM. Moreover, the “COX2 2 minutes pge2 area” value under setting [3] came out at 2.953.

`CS(=O)(=O)c1ccc(-c2cc(OCc3cccs3)cnn2)cc1` [Compound 234]: the “COX2 2 minutes pge2/pge2d4 area ratio Avg. LLE” value under setting [1] is given as 3.137. Also, the IC50 was determined as 2.45 µM under setting [2] and 2.42 µM under setting [4]. Moreover, the “COX2 2 minutes pge2 area” value under setting [3] came to 3.14.

Consider `CS(=O)(=O)c1ccc(-c2cc(NCc3ccco3)ccn2)cc1` [Compound 235], for which the IC50 was determined as 2.5 µM under setting [2] and 2.15 µM under setting [4].

As for `COc1ncc(NCc2ncco2)nc1-c1ccc(S(C)(=O)=O)cc1` [Compound 236], the “COX2 2 minutes pge2/pge2d4 area ratio Avg. LLE” value under setting [1] is 4.092. Moreover, the IC50 by setting is: under setting [2], 2.54 µM; under setting [4], 2.5 µM. Moreover, the “COX2 2 minutes pge2 area” value under setting [3] is 4.092.

Regarding `Cn1cc(CNc2cncc(-c3ccc(S(C)(=O)=O)cc3)n2)cn1` [Compound 237], under setting [1], the “COX2 2 minutes pge2/pge2d4 area ratio Avg. LLE” value came out at 4.753. Further, the IC50 was determined as 2.56 µM under setting [2] and 2.23 µM under setting [4]. The “COX2 2 minutes pge2 area” value under setting [3] stood at 4.8121.

As to `CS(=O)(=O)c1ccc(-n2ccc3ccc(Nc4cccnc4)nc32)cc1` [Compound 238], the IC50 was 2.66 µM under setting [2] and 3.28 µM under setting [4].

Turning to `CS(=O)(=O)c1ccc(-c2cc(NCc3ccoc3)ncn2)cc1` [Compound 239], the IC50 under setting [2] stood at 2.74 µM and the IC50 under setting [4] is 3.1 µM.

`CS(=O)(=O)c1ccc(-c2cncc(NC34CC5CC(CC(C5)C3)C4)n2)cc1` [Compound 240]: under setting [1], the “COX2 2 minutes pge2/pge2d4 area ratio Avg. LLE” value is reported as 2.7806. The IC50 worked out at 2.82 µM under setting [2] and 1.31 µM (10 minutes, readout pge2 area (counts), read-out: COX2 10 minutes pge2 area (counts) Avg. IC50). The “COX2 2 minutes pge2 area” value under setting [3] came to 2.394. For the same compound, where the note is “10 minutes, readout pge2 area (counts), average LLE”, the “COX2 10 minutes pge2 area (counts) Avg. LLE” value worked out at 2.9969.

Take `CS(=O)(=O)c1ccc(-c2cc(NCc3ccoc3)ccn2)cc1` [Compound 242]: the IC50 under setting [2] worked out at 3.01 µM.

As for `CC(C)CN(C)c1cncc(-c2ccc(S(C)(=O)=O)cc2)n1` [Compound 243], the “COX2 2 minutes pge2/pge2d4 area ratio Avg. LLE” value under setting [1] came out at 3.642. Besides, the IC50 under setting [2] stood at 3.12 µM and the IC50 under setting [4] came out at 2.31 µM. Further, under setting [3], the “COX2 2 minutes pge2 area” value was found to be 3.739.

Consider `CS(=O)(=O)c1ccc(-c2cnc3cnn(Cc4cccs4)c3c2)cc1` [Compound 244], for which the “COX2 2 minutes pge2/pge2d4 area ratio Avg. LLE” value under setting [1] came to 1.703. Moreover, the IC50 under setting [2] was determined as 3.15 µM.

Take `Cn1ccc(CNc2cncc(-c3ccc(S(C)(=O)=O)cc3)n2)n1` [Compound 245]: under setting [1], the “COX2 2 minutes pge2/pge2d4 area ratio Avg. LLE” value is 4.632. Further, the IC50 under setting [2] stood at 3.16 µM and the IC50 under setting [4] was 3.33 µM. The “COX2 2 minutes pge2 area” value under setting [3] worked out at 4.621.

As for `CS(=O)(=O)c1ccc(-c2cncc(NCc3ncco3)n2)cc1` [Compound 246], the “COX2 2 minutes pge2/pge2d4 area ratio Avg. LLE” value under setting [1] was found to be 4.306. For the same compound, the IC50 by setting is: under setting [2], 3.27 µM; under setting [4], 3.41 µM. Besides, the “COX2 2 minutes pge2 area” value under setting [3] amounted to 4.2875.

As for `CS(=O)(=O)c1ccc(-c2cccc(/C=C/c3ccoc3)n2)cc1` [Compound 247], under setting [1], the “COX2 2 minutes pge2/pge2d4 area ratio Avg. LLE” value is 1.819. Moreover, the IC50 under setting [2] is 3.36 µM. Besides, under setting [3], the “COX2 2 minutes pge2 area” value was determined as 1.724.

Take `CC(=O)c1ncc(NCc2cccs2)nc1-c1ccc(S(C)(=O)=O)cc1` [Compound 248]: the “COX2 2 minutes pge2/pge2d4 area ratio Avg. LLE” value under setting [1] came out at 3.159. In addition, the IC50 under setting [2] turned out to be 3.36 µM and the IC50 under setting [4] is 3.3 µM. Besides, under setting [3], the “COX2 2 minutes pge2 area” value stood at 3.163.

For the compound `CS(=O)(=O)c1ccc(-c2cccc(NCc3ccco3)n2)cn1` [Compound 250], the “COX2 2 minutes pge2/pge2d4 area ratio Avg. LLE” value under setting [1] stood at 3.529. For the same compound, the IC50 is, setting by setting: under setting [2], 3.44 µM; under setting [4], 3.47 µM. Under setting [3], the “COX2 2 minutes pge2 area” value came out at 3.534.

On to `CS(=O)(=O)c1ccc(-c2cccc([S@+]([O-])Cc3cccs3)n2)cc1` [Compound 251], for which, under setting [1], the “COX2 2 minutes pge2/pge2d4 area ratio Avg. LLE” value was 3.082. Besides, the IC50 is 3.7 µM under setting [2] and 4.84 µM under setting [4]. Besides, under setting [3], the “COX2 2 minutes pge2 area” value is given as 2.9649.

As for `CS(=O)(=O)c1ccc(-c2cncc(OC[C@H]3CCCO3)n2)cc1` [Compound 252], under setting [1], the “COX2 2 minutes pge2/pge2d4 area ratio Avg. LLE” value was 4.199. For the same compound, the IC50 under setting [2] worked out at 3.72 µM. Also, under setting [3], the “COX2 2 minutes pge2 area” value was determined as 4.054.

In the case of `CS(=O)(=O)c1ccc(-c2cccc(NCc3cocn3)n2)cc1` [Compound 254], under setting [1], the “COX2 2 minutes pge2/pge2d4 area ratio Avg. LLE” value is 3.075. In addition, under setting [2], the IC50 was found to be 3.93 µM.

In the case of `CS(=O)(=O)c1ccc(-c2cnnc(OCc3ccco3)c2)cc1` [Compound 255], the “COX2 2 minutes pge2/pge2d4 area ratio Avg. LLE” value under setting [1] was 3.111. In addition, the IC50 amounted to 4.01 µM under setting [2] and 1.93 µM under setting [4]. The “COX2 2 minutes pge2 area” value under setting [3] is 3.485.

Take `CS(=O)(=O)c1ccc(-c2nc3cnn(Cc4cccs4)c3[nH]2)cc1` [Compound 256]: the IC50 worked out at 4.04 µM under setting [2] and 4.56 µM under setting [4].

On to `CS(=O)(=O)c1ccc(-c2nc(NCc3cccs3)cnc2C(N)=O)cc1` [Compound 257], for which, under setting [1], the “COX2 2 minutes pge2/pge2d4 area ratio Avg. LLE” value was 4.28. In addition, the IC50 stood at 4.09 µM under setting [2] and 3.49 µM under setting [4]. The “COX2 2 minutes pge2 area” value under setting [3] was found to be 4.347.

On to `CS(=O)(=O)c1ccc(-c2cncc(SCc3cocn3)n2)cc1` [Compound 258], for which the “COX2 2 minutes pge2/pge2d4 area ratio Avg. LLE” value under setting [1] came out at 3.44. The IC50 is, setting by setting: under setting [2], 4.1 µM; under setting [4], 3.9 µM. The “COX2 2 minutes pge2 area” value under setting [3] amounted to 3.462.

In the case of `COc1cc(S(C)(=O)=O)ccc1-c1cccc(NCc2cccs2)n1` [Compound 259], the “COX2 2 minutes pge2/pge2d4 area ratio Avg. LLE” value under setting [1] is 1.917. Moreover, the IC50 is 4.15 µM under setting [2] and 3.25 µM under setting [4]. Besides, under setting [3], the “COX2 2 minutes pge2 area” value stood at 2.088.

Consider `COc1ncc(-c2ccc(S(C)(=O)=O)cc2)nc1NCc1ccccn1` [Compound 260], for which, under setting [1], the “COX2 2 minutes pge2/pge2d4 area ratio Avg. LLE” value is reported as 4.221. Further, the IC50 runs as follows: under setting [2], 4.26 µM; under setting [4], 2.35 µM. In addition, the “COX2 2 minutes pge2 area” value under setting [3] is recorded as 4.307.

Regarding `CS(=O)(=O)c1ccc(-c2cnc(C(=O)O)c(NCc3cccs3)n2)cc1` [Compound 261], the “COX2 2 minutes pge2/pge2d4 area ratio Avg. LLE” value under setting [1] worked out at 4.063. Also, under setting [2], the IC50 stood at 4.55 µM. Besides, the “COX2 2 minutes pge2 area” value under setting [3] was 4.034.
